Source: US9855272B2, “1H-pyrazolo[3,4-B]pyridines and therapeutic uses thereof” (Samumed, LLC, priority 2009, dated 2018)

System: Wnt
Experiment: Wnt reporter assay: SP5 promoter-driven firefly luciferase in SW480 cells
Assay type: cell-based
Details: Homo sapiens; SW480 colon cancer cells with SP5 promoter (TCF/LEF) luciferase reporter; 24-40 h after compound addition; normalized to DMSO; read-out: Wnt inhibition, IC50
From the text: Another screening assay for Wnt activity is described as follows. Reporter cell lines can be generated by stably transducing cells of cancer cell lines (e.g., colon cancer) with a lentiviral construct that include a wnt-responsive promoter driving expression of the firefly luciferase gene.
Lentiviral constructs can be made in which the SP5 promoter, a promoter having eight TCF/LEF binding sites derived from the SP5 promoter, is linked upstream of the firefly luciferase gene. The lentiviral constructs can also include a hygromycin resistance gene as a selectable marker. The SP5 promoter construct can be used to transduce SW480 cells, a colon cancer cell line having a mutated APC gene that generates a truncated APC protein, leading to de-regulated accumulation of β-catenin.
Cultured SW480 cells bearing a reporter construct can be distributed at approximately 10,000 cells per well into 96 well or 384 well plates. Compounds from a small molecule compound library can then be added to the wells in half-log dilutions using a ten micromolar top concentration. A series of control wells for each cell type receive only buffer and compound solvent. Twenty-four to forty hours after the addition of compound, reporter activity for luciferase can be assayed, for example, by addition of the BrightGlo luminescence reagent (Promega) and the Victor3 plate reader (Perkin Elmer). Readings can be normalized to DMSO only treated cells, and normalized activities can then be used in the IC50 calculations.

Row | Structure (SMILES) | IC50 [nM]
1 | CCC(=O)Nc1cncc(-c2cnc3[nH]nc(-c4nc5c(N6CCOCC6)cncc5[nH]4)c3c2)c1 [Compound 55, N-(5-(3-(7-morpholino-3H-imidazo[4,5-c]pyridin-2-yl)-1H-pyrazolo[3,4-b]pyridin-5-yl)pyridin-3-yl)propionamide] | > 10000
2 | CCC(=O)Nc1cncc(-c2cnc3[nH]nc(-c4nc5c(-c6ccccc6F)cncc5[nH]4)c3c2)c1 [Compound 51, N-(5-(3-(7-(2-fluorophenyl)-3H-imidazo[4,5-c]pyridin-2-yl)-1H-pyrazolo[3,4-b]pyridin-5-yl)pyridin-3-yl)propionamide] | < 45
3 | c1cncc(-c2cnc3[nH]nc(-c4nc5ccncc5[nH]4)c3c2)c1 [Compound 46] | 1000 to 2000
4 | Cc1ccncc1-c1cnc2[nH]nc(-c3nc4ccncc4[nH]3)c2c1 [Compound 29, 3-(3H-imidazo[4,5-c]pyridin-2-yl)-5-(4-methylpyridin-3-yl)-1H-pyrazolo[3,4-b]pyridine] | 3000 to 5000
5 | CN(C)C(=O)Nc1cncc(-c2cnc3[nH]nc(-c4nc5c(-c6cccc(F)c6)cncc5[nH]4)c3c2)c1 [Compound 66, 3-(5-(3-(7-(3-fluorophenyl)-3H-imidazo[4,5-c]pyridin-2-yl)-1H-pyrazolo[3,4-b]pyridin-5-yl)pyridin-3-yl)-1,1-dimethylurea] | < 15
6 | CCC(=O)Nc1cncc(-c2cnc3[nH]nc(-c4nc5c(-c6ccc(F)cc6)cncc5[nH]4)c3c2)c1 [Compound 50, N-(5-(3-(7-(4-fluorophenyl)-3H-imidazo[4,5-c]pyridin-2-yl)-1H-pyrazolo[3,4-b]pyridin-5-yl)pyridin-3-yl)propionamide] | < 1.5
7 | CC(C)C(=O)Nc1cncc(-c2cnc3[nH]nc(-c4nc5c(N6CCN(C)CC6)cncc5[nH]4)c3c2)c1 [Compound 59, N-(5-(3-(7-(4-methylpiperazin-1-yl)-3H-imidazo[4,5-c]pyridin-2-yl)-1H-pyrazolo[3,4-b]pyridin-5-yl)pyridin-3-yl)isobutyramide] | 2000 to 3000
8 | CC(C)CC(=O)Nc1cncc(-c2cnc3[nH]nc(-c4nc5c(N6CCN(C)CC6)cncc5[nH]4)c3c2)c1 [Compound 57, 3-methyl-N-(5-(3-(7-(4-methylpiperazin-1-yl)-3H-imidazo[4,5-c]pyridin-2-yl)-1H-pyrazolo[3,4-b]pyridin-5-yl)pyridin-3-yl)butanamide] | 1000 to 4000
9 | CCC(=O)Nc1cncc(-c2cnc3[nH]nc(-c4nc5c(-c6cccnc6)cncc5[nH]4)c3c2)c1 [Compound 47, N-(5-(3-(7-(pyridin-3-yl)-3H-imidazo[4,5-c]pyridin-2-yl)-1H-pyrazolo[3,4-b]pyridin-5-yl)pyridin-3-yl)propionamide] | 7000 to 10000
10 | CC(C)C(=O)Nc1cncc(-c2cnc3[nH]nc(-c4nc5ccncc5[nH]4)c3c2)c1 [Compound 52, N-(5-(3-(3H-imidazo[4,5-c]pyridin-2-yl)-1H-pyrazolo[3,4-b]pyridin-5-yl)pyridin-3-yl)isobutyramide] | > 10000
11 | CC(C)CC(=O)Nc1cncc(-c2cnc3[nH]nc(-c4nc5ccncc5[nH]4)c3c2)c1 [Compound 53, N-(5-(3-(3H-imidazo[4,5-c]pyridin-2-yl)-1H-pyrazolo[3,4-b]pyridin-5-yl)pyridin-3-yl)-3-methylbutanamide] | > 10000
12 | CCC(=O)Nc1cncc(-c2cnc3[nH]nc(-c4nc5c(-c6cccc(F)c6)cncc5[nH]4)c3c2)c1 [Compound 49, N-(5-(3-(7-(3-fluorophenyl)-3H-imidazo[4,5-c]pyridin-2-yl)-1H-pyrazolo[3,4-b]pyridin-5-yl)pyridin-3-yl)propionamide] | < 5
13 | O=C(Nc1cncc(-c2cnc3[nH]nc(-c4nc5c(-c6cccc(F)c6)cncc5[nH]4)c3c2)c1)N1CCOCC1 [Compound 62, N-(5-(3-(7-(3-fluorophenyl)-3H-imidazo[4,5-c]pyridin-2-yl)-1H-pyrazolo[3,4-b]pyridin-5-yl)pyridin-3-yl)morpholine-4-carboxamide] | < 20
14 | c1cncc(-c2cnc3[nH]nc(-c4nc5c(-c6cccnc6)cncc5[nH]4)c3c2)c1 [Compound 45] | 200 to 1200
